According to ChEMBL document CHEMBL1133707, “Heteroarylmethoxyphenylalkoxyiminoalkylcarboxylic acids as leukotriene biosynthesis inhibitors” (J Med Chem, 2000):

Experiments:
Homo sapiens [1] = species on record: Homo sapiens; test: Inhibition of Calcium Ionophore (A-23187)-stimulated LTB4 formation in Human whole blood assay at a concentration of 12.5 nM; type: functional
Homo sapiens [2] = species on record: Homo sapiens; test: Inhibition of Calcium Ionophore (A-23187)-stimulated LTB4 formation in Human whole blood assay.; type: functional
[3] = half life was determined in plasma of dog; type: ADME, organism-based, Canis lupus familiaris
[4] = half life was determined in plasma of rat; type: ADME, organism-based
[5] = half life was determined in plasma of monkey; type: ADME; details: simiiformes
Rattus norvegicus [6] = test: Percent inhibition was determined for in vivo ionophore induced rat pleurisy at a dose of 3 mg/kg; type: functional
Rattus norvegicus [7] = test: Effective dose was determined in in vivo which inhibits 50% of the mean value in rat anaphylaxis.; type: functional
Rattus norvegicus [8] = test: Percent inhibition was determined for in vivo ionophore induced rat pleurisy at a dose of 10 mg/kg
Rattus norvegicus [9] = test: Effective dose was determined for in vivo ionophore induced rat pleurisy.; type: functional
Rattus norvegicus [10] = test: In vivo inhibition of ionophore induced rat pleurisy.; type: functional
Rattus norvegicus [11] = test: Percent inhibition was determined for in vivo ionophore induced rat pleurisy at a dose of 0.3 mg/kg
[12] = biological target: T1, Polyunsaturated fatty acid 5-lipoxygenase (Homo sapiens) (UniProt P09917); test: Inhibition of Calcium Ionophore (A-23187)-stimulated LTB4 formation in Human Neutrophil assay at 100 nM.
T1 sequence (whole entry): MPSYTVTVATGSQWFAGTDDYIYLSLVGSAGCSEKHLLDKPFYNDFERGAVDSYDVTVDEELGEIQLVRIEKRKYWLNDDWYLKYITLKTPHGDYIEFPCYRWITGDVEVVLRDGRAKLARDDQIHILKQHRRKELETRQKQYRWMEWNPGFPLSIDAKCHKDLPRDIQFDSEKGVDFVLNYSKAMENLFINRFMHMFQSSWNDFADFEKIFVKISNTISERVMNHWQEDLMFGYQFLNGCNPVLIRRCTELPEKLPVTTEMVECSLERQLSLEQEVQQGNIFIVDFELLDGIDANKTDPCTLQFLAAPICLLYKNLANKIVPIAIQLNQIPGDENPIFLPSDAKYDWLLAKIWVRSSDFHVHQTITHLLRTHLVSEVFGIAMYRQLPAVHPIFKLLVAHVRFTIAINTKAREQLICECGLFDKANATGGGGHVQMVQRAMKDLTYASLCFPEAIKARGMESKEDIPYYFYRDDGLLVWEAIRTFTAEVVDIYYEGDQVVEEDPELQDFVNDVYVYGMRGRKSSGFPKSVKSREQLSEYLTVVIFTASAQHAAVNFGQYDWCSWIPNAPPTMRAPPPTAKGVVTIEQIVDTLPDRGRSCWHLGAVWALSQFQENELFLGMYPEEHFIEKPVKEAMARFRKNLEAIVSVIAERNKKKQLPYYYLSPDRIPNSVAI

C/C(=N/OC(c1ccc(OCc2ccc3ccccc3n2)cc1)C1CCCCC1)C(=O)O (stereo unspecified)
Inhibition (Homo sapiens [1]): 59%

CC(=NOC(c1ccc(OCc2ccc3ccccc3n2)cc1)C1CCCCC1)C(=O)O (stereo unspecified)
IC50 (Homo sapiens [2]; Homo sapiens, Blood): 2100 nM | half-life [3]: 2 h | half-life [4]: 1 h | half-life [5]: 5.4 h | I (Rattus norvegicus [6]): 89% | ED50 (Rattus norvegicus [7]): 1.2 mg/kg

O=C(O)/C=N/OCC(c1ccc(OCc2ccc3ccccc3n2)cc1)C1CCCCC1 (stereo unspecified)
I (Rattus norvegicus [8]): 73%

CC(C)(C)SC/C(=N\OC(c1ccc(OCc2ccc3ccccc3n2)cc1)C1CCCCC1)C(=O)O (stereo unspecified)
I (Rattus norvegicus [9]): 47%

C/C(=N\O[C@H](c1ccc(OCc2ccc3ccccc3n2)cc1)C1CCCCC1)C(=O)[O-].[Na+]
ED50 (Rattus norvegicus [10]): 0.14 mg/kg | IC50 (Homo sapiens [2]; Homo sapiens, Blood): 720 nM | half-life [3]: 5.6 h | half-life [4]: 10.3 h | half-life [5]: 1.6 h | ED50 (Rattus norvegicus [7]): 0.13 mg/kg

C/C(=N\OC(c1ccc(OCc2ccc3ccccc3n2)cc1Cl)C1CCCCC1)C(=O)O (stereo unspecified)
ED50 (Rattus norvegicus [9]): 0.8 mg/kg

C/C(=N\OC(c1ccc(OCc2ccc3ccccc3n2)cc1)C1CCCCC1)C(=O)[O-].[Na+] (stereo unspecified)
Inhibition (Homo sapiens [2]): 72% | I (Rattus norvegicus [11]): 74%

C/C(=N\O[C@H](c1ccc(OCc2ccc3ccccc3n2)cc1)C1CCCCC1)C(=O)O
IC50 (Homo sapiens [2]): 840 nM | half-life [3]: 4.6 h | half-life [4]: 11.8 h | half-life [5]: 4 h | I (Rattus norvegicus [11]): 43%

CC(C)(CC(O/N=C/C(=O)O)c1ccc(OCc2ccc3ccccc3n2)cc1)c1ccccc1 (stereo unspecified)
ED50 (Rattus norvegicus [9]): 4 mg/kg

C/C(CC(=O)O)=N\OC(c1ccc(OCc2ccc3ccccc3n2)cc1)C1CCCCC1 (stereo unspecified)
inhibition [12]: 40% | I (Rattus norvegicus [6]): 68%
